From ChEMBL document CHEMBL1201862, “PubChem BioAssay data set” (2004)
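How tested: cells in 96-well plates exposed to compound for 48 hours at five concentrations. GI50 = concentration required for 50% inhibition of growth.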 The source made the active and inactive calls. No stated cut-off is given here; in the data, active = GI50 up to about 1.1 µM and inactive = higher.

How the values were obtained:
Experiment in all cases: NCI anticancer screen, dose series, 48 h
786-0 = tested on: 786-0
A549 = tested on: A549
ACHN = tested on: ACHN
CAKI-1 = tested on: CAKI-1
CCRF-CEM = tested on: CCRF-CEM
COLO 205 = tested on: COLO 205
DLD-1 = tested on: DLD-1
DMS-114 = tested on: DMS-114
EKVX = tested on: EKVX
HCT-116 = tested on: HCT-116
HCT-15 = tested on: HCT-15
HL-60 = tested on: HL-60
HOP-18 = tested on: HOP-18
HOP-62 = tested on: HOP-62
HOP-92 = tested on: HOP-92
HT-29 = tested on: HT-29
IGROV-1 = tested on: IGROV-1
K562 = tested on: K562
KM-20L2 = tested on: KM-20L2
KM12 = tested on: KM12
LXFL 529 = tested on: LXFL 529
M14 = tested on: M14
M19-MEL = tested on: M19-MEL
MOLT-4 = tested on: MOLT-4
Malme-3M = tested on: Malme-3M
NCI-H226 = tested on: NCI-H226
NCI-H23 = tested on: NCI-H23
NCI-H460 = tested on: NCI-H460
NCI-H522 = tested on: NCI-H522
OVCAR-3 = tested on: OVCAR-3
OVCAR-4 = tested on: OVCAR-4
OVCAR-8 = tested on: OVCAR-8
RPMI-8226 = tested on: RPMI-8226
RXF 393 = tested on: RXF 393
RXF 631 = tested on: RXF 631
SF-268 = tested on: SF-268
SF-295 = tested on: SF-295
SF-539 = tested on: SF-539
SK-MEL-28 = tested on: SK-MEL-28
SK-MEL-2 = tested on: SK-MEL-2
SK-MEL-5 = tested on: SK-MEL-5
SK-OV-3 = tested on: SK-OV-3
SN12C = tested on: SN12C
SNB-19 = tested on: SNB-19
SNB-75 = tested on: SNB-75
SR = tested on: SR
SW-620 = tested on: SW-620
TK-10 = tested on: TK-10
U-251 = tested on: U-251
UACC-257 = tested on: UACC-257
UACC-62 = tested on: UACC-62
UO-31 = tested on: UO-31
XF498 = tested on: XF498

COc1cc2c(cc1C1=NC(C)(C)CO1)OCO2
GI50 (786-0): > 100 µM (inactive)
GI50 (A549): > 100 µM (inactive)
GI50 (ACHN): > 100 µM (inactive)
GI50 (CAKI-1): > 100 µM (inactive)
GI50 (CCRF-CEM): > 100 µM (inactive)
GI50 (COLO 205): > 100 µM (inactive)
GI50 (DLD-1): > 100 µM (inactive)
GI50 (DMS-114): > 100 µM (inactive)
GI50 (EKVX): > 100 µM (inactive)
GI50 (HCT-116): > 100 µM (inactive)
GI50 (HCT-15): > 100 µM
GI50 (HL-60): > 100 µM (inactive)
GI50 (HOP-18): > 100 µM (inactive)
GI50 (HOP-62): > 100 µM (inactive)
GI50 (HOP-92): > 100 µM (inactive)
GI50 (HT-29): > 100 µM (inactive)
GI50 (IGROV-1): > 100 µM (inactive)
GI50 (K562): > 100 µM (inactive)
GI50 (KM-20L2): > 100 µM (inactive)
GI50 (KM12): > 100 µM (inactive)
GI50 (LXFL 529): > 100 µM (inactive)
GI50 (M14): > 100 µM (inactive)
GI50 (M19-MEL): > 100 µM (inactive)
GI50 (MOLT-4): > 100 µM (inactive)
GI50 (Malme-3M): > 100 µM (inactive)
GI50 (NCI-H226): > 100 µM (inactive)
GI50 (NCI-H23): > 100 µM (inactive)
GI50 (NCI-H460): > 100 µM (inactive)
GI50 (NCI-H522): > 100 µM (inactive)
GI50 (OVCAR-3): > 100 µM (inactive)
GI50 (OVCAR-4): > 100 µM (inactive)
GI50 (OVCAR-8): > 100 µM (inactive)
GI50 (RPMI-8226): > 100 µM (inactive)
GI50 (RXF 393): > 100 µM (inactive)
GI50 (RXF 631): > 100 µM (inactive)
GI50 (SF-268): > 100 µM (inactive)
GI50 (SF-295): > 100 µM (inactive)
GI50 (SF-539): > 100 µM (inactive)
GI50 (SK-MEL-28): > 100 µM (inactive)
GI50 (SK-MEL-2): > 100 µM (inactive)
GI50 (SK-MEL-5): > 100 µM (inactive)
GI50 (SK-OV-3): > 100 µM (inactive)
GI50 (SN12C): > 100 µM (inactive)
GI50 (SNB-19): > 100 µM (inactive)
GI50 (SNB-75): > 100 µM (inactive)
GI50 (SR): > 100 µM (inactive)
GI50 (SW-620): > 100 µM (inactive)
GI50 (TK-10): > 100 µM (inactive)
GI50 (U-251): > 100 µM (inactive)
GI50 (UACC-257): > 100 µM (inactive)
GI50 (UACC-62): > 100 µM (inactive)
GI50 (UO-31): > 100 µM (inactive)
GI50 (XF498): > 100 µM (inactive)
